± gives the expanded uncertainty stated by the source.
Conditions: Fluid (supercritical or subcritical phases), isochoric method

FC(F)(F)/C=C/C(F)(F)F [trans-1,1,1,4,4,4-hexafluoro-2-butene]
Conditions	mass density [kg/m3]
323.43 K, 579.7 kPa	1212.1 ± 4.9
333.44 K, 5332.4 kPa	1210.9 ± 4.9
333.46 K, 1305.2 kPa	1180.7 ± 4.7
343.44 K, 10088 kPa	1209.8 ± 4.9
343.45 K, 5602.3 kPa	1179.6 ± 4.7
353.44 K, 1232.2 kPa	1093.7 ± 6
353.44 K, 4087.2 kPa	1128.3 ± 4.5
353.46 K, 9911.4 kPa	1178.4 ± 4.7
363.43 K, 7766.9 kPa	1127.2 ± 4.5
363.44 K, 4495.7 kPa	1092.6 ± 4.4
363.45 K, 2343 kPa	1061.2 ± 4.3
373.43 K, 1203.4 kPa	83.9 ± 11
373.43 K, 1779.9 kPa	991.3 ± 14
373.44 K, 7789.6 kPa	1091.5 ± 4.4
373.46 K, 5302.7 kPa	1060.2 ± 4.3
383.41 K, 1661.4 kPa	129.2 ± 6.5
383.43 K, 2410.5 kPa	940.3 ± 4.4
383.44 K, 1263 kPa	83.9 ± 1
383.44 K, 4128.8 kPa	990.3 ± 4
383.46 K, 8290.7 kPa	1059.2 ± 4.3
393.42 K, 1764.3 kPa	129.1 ± 5.6
393.44 K, 1320.8 kPa	83.8 ± 0.9
393.44 K, 6524 kPa	989.3 ± 4
393.45 K, 2531 kPa	848.7 ± 4.2
393.45 K, 4410.6 kPa	939.4 ± 3.8
403.43 K, 1863.4 kPa	128.9 ± 1.9
403.43 K, 2784.5 kPa	594.5 ± 22
403.43 K, 3331.6 kPa	794.2 ± 3.6
403.44 K, 1377.2 kPa	83.7 ± 0.9
403.44 K, 2465.8 kPa	220.8 ± 4
403.44 K, 2774.4 kPa	460.7 ± 22
403.44 K, 2774.7 kPa	402.7 ± 28
403.44 K, 2776.5 kPa	535.5 ± 22
403.44 K, 4004.8 kPa	847.9 ± 3.4
403.44 K, 8946 kPa	988.4 ± 4
403.45 K, 2727.9 kPa	325 ± 23
403.45 K, 2855.7 kPa	688.4 ± 5.1
403.45 K, 3069.1 kPa	755.5 ± 4.3
403.45 K, 6453.8 kPa	938.5 ± 3.8
413.42 K, 1959.4 kPa	128.8 ± 1.6
413.42 K, 3461.5 kPa	594 ± 4.2
413.43 K, 3371.4 kPa	535 ± 6.3
413.43 K, 4600.2 kPa	793.4 ± 3.3
413.43 K, 5530.3 kPa	847.1 ± 3.4
413.44 K, 1432.9 kPa	83.6 ± 0.8
413.44 K, 2664.9 kPa	220.6 ± 1.7
413.44 K, 3213.6 kPa	402.3 ± 5.4
413.44 K, 3284.4 kPa	460.2 ± 7.2
413.44 K, 8521.8 kPa	937.6 ± 3.8
413.45 K, 3064.7 kPa	324.7 ± 3.9
413.45 K, 4177.9 kPa	754.8 ± 3.2
413.46 K, 3739.9 kPa	687.7 ± 3.5
423.42 K, 2053.6 kPa	128.7 ± 1
423.42 K, 3980.8 kPa	534.4 ± 3.6
423.42 K, 4173.8 kPa	593.4 ± 3.1
423.43 K, 1487.5 kPa	83.5 ± 0.8
423.43 K, 3786.7 kPa	459.8 ± 3.9
423.43 K, 5906.9 kPa	792.7 ± 3.2
423.44 K, 7088.7 kPa	846.2 ± 3.4
423.45 K, 2857.2 kPa	220.3 ± 2
423.45 K, 3387.7 kPa	324.4 ± 2.4
423.45 K, 3637.3 kPa	402 ± 3.2
423.45 K, 5329 kPa	754 ± 3.1
423.46 K, 4672.9 kPa	687 ± 3.1
433.42 K, 2146.1 kPa	128.6 ± 0.9
433.42 K, 4598 kPa	533.9 ± 2.9
433.42 K, 4900.8 kPa	592.8 ± 2.7
433.43 K, 1541.9 kPa	83.4 ± 0.7
433.43 K, 4284.4 kPa	459.3 ± 2.8
433.43 K, 4286.7 kPa	459.3 ± 2.8
433.43 K, 8666.9 kPa	845.4 ± 3.4
433.44 K, 3703.4 kPa	324.1 ± 2
433.44 K, 7237.5 kPa	791.9 ± 3.2
433.45 K, 3045.2 kPa	220.1 ± 1.4
433.45 K, 4055.4 kPa	401.6 ± 2.5
433.45 K, 5628.3 kPa	686.4 ± 2.9
433.45 K, 6506.9 kPa	753.3 ± 3.1
443.42 K, 1595.5 kPa	83.4 ± 0.7
443.42 K, 5218.7 kPa	533.4 ± 2.6
443.42 K, 5638.1 kPa	592.3 ± 2.6
443.43 K, 2237.3 kPa	128.4 ± 0.9
443.43 K, 4783.2 kPa	458.9 ± 2.4
443.44 K, 4469 kPa	401.2 ± 2.2
443.44 K, 7698.7 kPa	752.6 ± 3.1
443.44 K, 8584 kPa	791.1 ± 3.2
443.45 K, 3230.1 kPa	219.9 ± 1.3
443.45 K, 4013.8 kPa	323.8 ± 1.8
443.45 K, 6600.4 kPa	685.7 ± 2.8
453.42 K, 2327.6 kPa	128.3 ± 0.8
453.42 K, 5843.1 kPa	532.9 ± 2.4
453.42 K, 6380.9 kPa	591.7 ± 2.5
453.43 K, 1648.3 kPa	83.3 ± 0.7
453.44 K, 4319.3 kPa	323.4 ± 1.7
453.44 K, 5280.1 kPa	458.5 ± 2.2
453.44 K, 9941.5 kPa	790.4 ± 3.2
453.45 K, 3412.1 kPa	219.7 ± 1.2
453.46 K, 4880.1 kPa	400.8 ± 2
453.46 K, 7584.8 kPa	685 ± 2.8
453.46 K, 8905 kPa	751.8 ± 3.1
463.42 K, 1700 kPa	83.2 ± 0.7
463.42 K, 7127.1 kPa	591.1 ± 2.5
463.44 K, 2415.5 kPa	128.2 ± 0.8
463.44 K, 6468.5 kPa	532.4 ± 2.3
463.45 K, 5285.9 kPa	400.4 ± 1.9
463.45 K, 10115 kPa	751.1 ± 3
463.46 K, 3590.1 kPa	219.5 ± 1.1
463.46 K, 4621.8 kPa	323.1 ± 1.6
463.46 K, 5775.9 kPa	458 ± 2.1
463.47 K, 8574.6 kPa	684.4 ± 2.8
473.43 K, 7093.2 kPa	531.9 ± 2.3
473.43 K, 7877 kPa	590.5 ± 2.4
473.44 K, 1751.3 kPa	83.1 ± 0.6
473.45 K, 3766 kPa	219.3 ± 1.1
473.45 K, 4919.9 kPa	322.8 ± 1.5
473.45 K, 5690.2 kPa	400 ± 1.8
473.45 K, 6269.7 kPa	457.6 ± 2
473.46 K, 2503.4 kPa	128.1 ± 0.8
473.46 K, 9568.9 kPa	683.7 ± 2.8
483.43 K, 7718.7 kPa	531.4 ± 2.2
483.44 K, 6093 kPa	399.6 ± 1.8
483.44 K, 6761.7 kPa	457.1 ± 2
483.44 K, 8628.9 kPa	590 ± 2.4
483.45 K, 1803.6 kPa	83 ± 0.6
483.45 K, 5216.5 kPa	322.5 ± 1.5
483.46 K, 2590.8 kPa	128 ± 0.7
483.46 K, 3941.1 kPa	219.1 ± 1.1
493.42 K, 8344.4 kPa	530.8 ± 2.2
493.43 K, 2677.3 kPa	127.8 ± 0.7
493.44 K, 9378.9 kPa	589.4 ± 2.4
493.45 K, 1854.7 kPa	83 ± 0.6
493.46 K, 5509.7 kPa	322.2 ± 1.4
493.46 K, 6493.6 kPa	399.3 ± 1.7
493.46 K, 7253 kPa	456.7 ± 1.9
493.47 K, 4117.6 kPa	218.9 ± 1
503.44 K, 2763.1 kPa	127.7 ± 0.7
503.44 K, 8968.2 kPa	530.3 ± 2.2
503.45 K, 1906.1 kPa	82.9 ± 0.6
503.45 K, 7742.3 kPa	456.3 ± 1.9
503.45 K, 10130 kPa	588.8 ± 2.4
503.46 K, 6891.7 kPa	398.9 ± 1.7
503.47 K, 4290.5 kPa	218.7 ± 1
503.47 K, 5802.6 kPa	321.9 ± 1.4
513.42 K, 2848.4 kPa	127.6 ± 0.7
513.42 K, 8228 kPa	455.8 ± 1.9
513.43 K, 9591.2 kPa	529.8 ± 2.2
513.44 K, 1956.7 kPa	82.8 ± 0.6
513.46 K, 4460.3 kPa	218.4 ± 1
513.46 K, 7287.8 kPa	398.5 ± 1.7
513.47 K, 6092.7 kPa	321.6 ± 1.4
523.41 K, 2933.2 kPa	127.5 ± 0.7
523.41 K, 8713.2 kPa	455.4 ± 1.9
523.44 K, 6379.8 kPa	321.3 ± 1.4
523.44 K, 10213 kPa	529.3 ± 2.2
523.45 K, 2008.3 kPa	82.7 ± 0.6
523.45 K, 7680.8 kPa	398.1 ± 1.7
523.46 K, 4629.7 kPa	218.2 ± 1
